Measured values: PubChem BioAssay (NCI)
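Test compounds were applied to cells in 96-well plates for 48 hours at 5 doses. Abbreviation: GI50, concentration required for 50% inhibition of growth. TGI: total growth inhibition.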

What was measured:
Test in all cases: DTP human tumour cell line panel, 48 h
A549 NSCLC = test system: A549 NSCLC
ACHN renal = test system: ACHN renal
MOLT-4 leukemia = test system: MOLT-4 leukemia
NCI-H226 lung = test system: NCI-H226 lung
NCI-H460 lung = test system: NCI-H460 lung
OVCAR-8 ovarian = test system: OVCAR-8 ovarian
RPMI-8226 leukemia = test system: RPMI-8226 leukemia
UACC-257 melanoma = test system: UACC-257 melanoma
UACC-62 melanoma = test system: UACC-62 melanoma
NCI/ADR-RES ovarian = test system: NCI/ADR-RES ovarian

Row | SMILES | TGI (A549 NSCLC) [µM] | TGI (ACHN renal) [µM] | TGI (MOLT-4 leukemia) [µM] | TGI (NCI-H226 lung) [µM] | TGI (NCI-H460 lung) [µM] | TGI (OVCAR-8 ovarian) [µM] | TGI (RPMI-8226 leukemia) [µM] | TGI (UACC-257 melanoma) [µM] | TGI (UACC-62 melanoma) [µM] | TGI (NCI/ADR-RES ovarian) [µM] | GI50 (A549 NSCLC) [µM] | GI50 (ACHN renal) [µM] | GI50 (MOLT-4 leukemia) [µM] | GI50 (NCI-H226 lung) [µM] | GI50 (NCI-H460 lung) [µM] | GI50 (OVCAR-8 ovarian) [µM] | GI50 (RPMI-8226 leukemia) [µM] | GI50 (UACC-257 melanoma) [µM] | GI50 (UACC-62 melanoma) [µM] | GI50 (NCI/ADR-RES ovarian) [µM]
1 | O=c1ncc(F)cn1C1OC(CO)C(O)C1O (centres undefined) | > 100 | > 100 | > 54.3 | > 100 | > 73 | > 100 | > 100 | > 55.3 | > 64.1 | – | – | – | – | – | – | – | – | – | – | –
2 | CN(C)CCNC(=O)c1cccc(N(C)C(=O)c2ccccc2)c1[N+](=O)[O-] | > 100 | > 100 | > 100 | > 100 | > 100 | > 100 | – | > 10 | > 100 | > 100 | – | – | – | – | – | – | – | – | – | –
3 | CC(C)([NH-])CO.CC(C)([NH-])CO.[Cl][Cd][Cl] | > 100 | > 100 | 47.3 | 20.9 | 24.6 | > 100 | 43.8 | > 100 | 25 | – | 30.2 | > 100 | 21.8 | 7.84 | 11.3 | 52.8 | 14.5 | > 100 | 7.82 | –
4 | Cn1cnc([N+](=O)[O-])c1Sc1nccn1-c1cccc2ccccc12 | > 100 | 94.2 | 43.7 | 59.6 | 73.1 | 58.8 | 49.9 | > 100 | 33.9 | – | – | – | – | – | – | – | – | – | – | –
5 | C/C(=N\NS(=O)(=O)c1ccc(C)cc1)P(=O)(O)O | > 100 | > 100 | – | > 100 | > 100 | > 100 | > 100 | > 100 | > 100 | > 100 | – | – | – | – | – | – | – | – | – | –
6 | Cc1ccc(S(=O)(=O)NC2(C=O)CCCC3CCCCC32)cc1 (centres undefined) | > 100 | > 100 | > 100 | > 100 | > 100 | > 100 | > 100 | > 100 | > 100 | – | – | – | – | – | – | – | – | – | – | –
7 | C/C(CC(=O)Nc1ccc(C)c(C)c1)=N\NC(N)=O | > 100 | > 100 | > 100 | > 100 | > 100 | > 100 | > 100 | > 100 | > 100 | – | – | – | – | – | – | – | – | – | – | –
8 | O=C(c1ccccc1)C1OC1c1ccc([N+](=O)[O-])cc1 (centres undefined) | > 100 | > 100 | – | 60.1 | 40.2 | > 100 | > 100 | > 100 | 42.5 | 9.36 | 24.9 | 6.08 | – | 18.1 | 10 | 4.71 | 8.29 | 16.7 | 11.3 | 2.58
9 | O=[P+](O)c1ccsc1 | > 100 | > 100 | > 100 | – | > 100 | > 100 | > 100 | – | > 100 | – | – | – | – | – | – | – | – | – | – | –
10 | CC(Nc1ccc(S(=O)(=O)N=C(N)N)cc1)c1c2ccccc2nc2ccccc12 (centres undefined) | > 100 | > 100 | 48.1 | 80.4 | 83.8 | 76.8 | 55.2 | 97.6 | > 10 | – | – | – | – | – | – | – | – | – | – | –
11 | COC(=O)C(C(=O)C(=O)Nc1ccc([N+](=O)[O-])cc1[N+](=O)[O-])c1nc2ccc(Cl)cc2[nH]c1=O (centres undefined) | > 100 | > 100 | > 100 | > 100 | > 100 | > 100 | > 100 | > 100 | > 100 | – | – | – | – | – | – | – | – | – | – | –
12 | CC(C)(C)c1cc(-n2c(-c3ccc(Cl)cc3)nc3cc(C(=O)Nc4ccc(Cl)cc4)ccc32)n[nH]1 | > 100 | > 100 | – | > 100 | > 100 | > 100 | – | > 100 | > 100 | > 100 | 3.71 | 5.18 | – | 10.4 | 3.57 | 9.03 | – | 7.92 | 2.75 | 4.17
13 | Cn1c2c(c3ccc([N+](=O)[O-])cc3c1=O)C(=O)c1ccccc1-2 | > 100 | > 100 | > 100 | > 100 | > 100 | > 100 | – | > 100 | > 100 | > 100 | > 100 | > 100 | > 100 | > 100 | > 100 | > 100 | – | > 100 | > 100 | > 100
14 | NCCCCCCCn1c2c(c3ccccc3c1=O)C(=O)c1ccccc1-2 | 18.3 | 3.47 | – | 22.2 | 2.59 | 4.82 | 2.62 | 4.09 | 3.85 | 7.87 | 3.27 | 1.6 | – | 8.37 | 0.478 | 1.69 | 1.09 | 2.19 | 2.01 | 2.56
15 | O=c1c(Br)cc2nc3ccccc3sc-2c1Br | > 100 | > 100 | > 65.8 | > 100 | > 100 | 41.4 | > 100 | > 85.4 | 79.8 | – | – | – | – | – | – | – | – | – | – | –
16 | CC(=O)OC(C)(C)/C(C)=C/C(=O)O[C@H]1C(=O)O[C@@H]2C[C@H]3[C@H](C)C(=O)C(O[C@@H]4O[C@H](CO)[C@@H](O)[C@H](O)[C@H]4O)=C[C@]3(C)[C@H]3[C@@H](O)[C@H](O)[C@@]4(C(=O)O)OC[C@]32[C@@H]14 | > 100 | > 100 | > 100 | > 100 | > 100 | > 100 | – | > 100 | > 100 | > 100 | > 100 | > 100 | 33.9 | 72.8 | 39.5 | > 100 | – | > 100 | > 100 | > 100
17 | O=C(O)CCC(N=Cc1nc(-c2ccccc2)oc1O)C(=O)O (centres undefined) | > 100 | > 100 | > 100 | > 100 | > 100 | > 100 | > 100 | > 100 | > 100 | – | – | – | – | – | – | – | – | – | – | –
18 | CCOC(=O)c1cc2c(cc1Cl)SC(N(c1ccc(OC)cc1)S(=O)(=O)c1ccc(Cl)cc1)=NS2(=O)=O | > 100 | > 100 | > 100 | > 100 | > 100 | – | > 100 | – | > 100 | 88.6 | 33.4 | 35 | 30.7 | 94.1 | 37.3 | – | 31.3 | – | 34.6 | 31.5
